The source of these data is paper PMC10945501, “Development and In Vivo Evaluation of Small-Molecule Ligands for Positron Emission Tomography of Immune Checkpoint Modulation Targeting Programmed Cell Death 1 Ligand 1” (Journal of Medicinal Chemistry, 2024).

Values joined by “and” are separate entries in the source; they are usually repeats but may differ in a detail not shown here. Equal entries are not always repeated. Where two headings read alike, the source gives them in different places.

As a reminder, the fraction unbound is the share of the substance not bound to proteins or other matrix. Lower therefore signals extensive binding. A word on the IC50: it is the concentration that inhibits the measured activity by half. What is called EC50 is the concentration needed to bring the measured effect to its halfway point. By Ki is commonly meant a measure of affinity in units of concentration, obtained from inhibition or displacement. What is called chromatographic logD is a lipophilicity value derived from retention on a column. Low values mean a more hydrophilic compound, high ones a more lipophilic compound.

The nature of data set [1]: Plasma stability, mouse plasma. To be noted: 60 min, 37 °C. Type of data set: in vitro ADME. Here is the method: (§1) Plasma stability was tested against pooled mouse plasma (Merck KGaA, Darmstadt, Germany) and pooled human plasma (Merck KGaA, Darmstadt, Germany). 25 μL of formulated radiotracer were incubated with 1250 μL of plasma at 37 °C. The amount of intact tracer (%) was determined after 0, 15, 30, and 60 min. 100 μL aliquots were quenched with the same amount of MeCN, centrifuged for 4 min at 4 °C with 21,380g, and analyzed by HPLC setup 1.

Data set [2] is described as follows: Plasma stability, human plasma. Type of data set: in vitro ADME. To be noted: 60 min, 37 °C. Here is the method: as §1
Data set [3] in a line: Plasma protein binding (centrifugal filters). Type of data set: in vitro ADME. To be noted: 10 kDa centrifugal filters. Here is the method:
Plasma protein binding was assessed using 10 kDa centrifugal filters (Merck KGaA, Darmstadt, Germany). After centrifugation for 30 min at 21,380g, filtrates, and filters were measured separately in a γ counter. In addition, water was used instead of plasma to assess the nonspecific binding to filters.

A short description of data set [4]: Metabolic stability in human liver microsomes. Type of data set: in vitro ADME. To be noted: 60 min, 37 °C. Here is the method:
Metabolic stability was tested using pooled, mixed gender, 20 donor human liver microsomes (HLM) (Corning, Corning, USA, Cat. #452161) according to the supplied protocol. In short, 15 μL of HLM (20 mg/mL), 15 μL of nicotinamide adenine dinucleotide phosphate (NADPH) regenerating system solution A (Corning, Corning, USA), 3 μL of solution B (Corning, Corning, USA), and 257 μL of a 1:10 dilution of 10× phosphate-buffered saline (PBS) concentrate (MORPHISTO, Offenbach am Main, Germany) were preincubated at 37 °C for 10 min.
Aliquots were drawn 0, 15, 30, and 60 min after the addition of 5 μL radiotracer, subsequently quenched with the same amount of MeCN, centrifuged for 4 min at 21,380g, and analyzed by HPLC setup 1 for the amount of intact tracer (%).

Data set [5] deals with CHO and CHO-hPD-L1 xenografts. Nature of the data set: In vivo dynamic μPET/CT imaging. As to conditions: NSG mice, i.v. Here is the method: Body weight and tumor development were monitored every second day by caliper measurement. […] The animals were subjected to μPET imaging, when tumors reached a volume of at least 200 mm^3. […] There were no losses. […] The mice were placed in the μPET/CT scanner (Inveon, Siemens Medical Solution, Knoxville, USA), covering the total body, and dynamic imaging was performed for up to 60 min to follow tracer distribution. Images were recorded with frames of 4 × 2 […], and 1 × 500 s. During the whole imaging procedure, vital parameters (respiration, body temperature) were continuously monitored using a dedicated monitoring unit (bioVet; m2m imaging, Cleveland, USA) to ensure the depth of anesthesia and well-being of the animals. […] Volumes of interest (VOIs) were created semiautomatically based on fused μPET and μCT images using PMOD software (Version 3.807; Bruker, Mannheim, Germany). The tracer uptake in the VOIs is normalized to injected dose and volume and expressed as percentage injected dose per cubic centimeter (% ID/cc).

Data set [6] has as its system CHO and CHO-hPD-L1 xenografts. Nature of the data set: Ex vivo biodistribution. Type of data set: in vivo, NSG mice. Here is the method: Ex vivo biodistribution was assessed 30, 40, and 70 min after tracer application in NSG mice. Radioactivity was determined using a Wizard[2] γ counter. Samples were measured for 30 s, CPM-corrected for background counts, and half-life corrected to time of tracer injection. Organs were wet-weighted, and the percentage of injected dose per gram of organ was calculated (% ID/g).

Data set [7] addresses T1, human PD-L1 (Homo sapiens, UniProt Q9NZQ7).
T1 construct: purchased Cisbio Bioassays SAS, Codolet, France 64PD1PEG
Nature of the data set: HTRF PD-1/PD-L1 binding assay (cell-free). To be noted: for fold decrease in affinity by methylation at R3*: IC50 ratio, pairs 4c vs 5a, 4c vs 5b, 4e vs 5c, 4e vs 5d; for IC50: cell-free competitive PD-1/PD-L1 HTRF, mean ± SD, read-out: IC50 (hPD-L1 binding affinity, HTRF). On the technique in general: Time-resolved FRET reads energy transfer from a long-lived donor to a nearby acceptor.

The subject of data set [8] is CHO-hPD-L1 cells. Nature of the data set: MTT cell viability assay. Format: cell-based, Chinese hamster. As to conditions: Cricetulus griseus, 24 h. Background: Tetrazolium assays rely on reduction of a dye to a coloured formazan, in cell work by metabolically active cells.
In data set [9] the target is T2, PD-L1 (CHO-hPD-L1 cells) (Homo sapiens, UniProt Q9NZQ7).
T2 construct: host or cells: CHO (Chinese hamster ovary) cells, kept under G418 selection
T2 sequence (Q9NZQ7 19-290): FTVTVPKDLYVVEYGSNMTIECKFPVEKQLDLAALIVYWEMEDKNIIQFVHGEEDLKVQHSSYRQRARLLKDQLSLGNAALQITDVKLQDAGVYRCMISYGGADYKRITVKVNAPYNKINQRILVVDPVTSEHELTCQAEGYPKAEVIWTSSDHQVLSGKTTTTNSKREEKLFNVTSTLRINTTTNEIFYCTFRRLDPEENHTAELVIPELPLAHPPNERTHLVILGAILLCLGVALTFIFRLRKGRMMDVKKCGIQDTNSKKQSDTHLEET
Nature of the data set: Competitive radioligand binding assay with [^89Zr]Zr-atezolizumab, PD-L1-positive cells. As to conditions: for % applied activity ([^89Zr]Zr-atezolizumab bound) / blockade of antibody binding: CHO-hPD-L1 cells; for % applied activity ([^89Zr]Zr-atezolizumab bound): preincubation with 5,000 nM blocker; for blockade of antibody binding: highest noncytotoxic concentration; for Ki: range contingent on published KD values of atezolizumab, read-out: Ki (Cheng–Prusoff).

Data set [10] has as its system PD-L1-negative (CHO) cells. Nature of the data set: Competitive radioligand binding assay with [^89Zr]Zr-atezolizumab, PD-L1-negative cells. The arrangement: species or system Chinese hamster. Here is the method: When 5a and 5c were administered at their highest noncytotoxic concentrations, a 50% blockade of antibody binding was observed (p = 0.034, p = 0.025, respectively).
Nonspecific binding of MultiScreen plates (Merck KGaA, Darmstadt, Germany) was blocked with additive-free Ham’s F-12 medium for 30 min, followed by the addition of 2 × 10^5 CHO-K1 (ATCC, Manassas, USA) or CHO-hPD-L1 cells in 150 μL of additive-free Ham’s F-12 medium per well. […] Supernatant was removed after 60 min of incubation using the MultiScreenHTS vacuum filtration system (Merck KGaA, Darmstadt, Germany) and cells were washed twice with DPBS. After drying, filters were punched and measured in a Wizard^2 γ counter (PerkinElmer, Waltham, USA).

A short description of data set [11]: Lipophilicity by HPLC method (μHPLC logD). As to conditions: for chromatographic logD: pH 7.4, μHPLC logD.
The subject of data set [12] is PD-L1^+ / PD-L1^– H358 tumors (lung adenocarcinoma). Set-up: method as in PMID 37450644. As to conditions: ex vivo autoradiography; cited from earlier work.
Data set [13] relates to PD-L1^± ES2 tumors (ovarian carcinoma). Set-up: method as in PMID 37450644. To be noted: ex vivo autoradiography; cited from earlier work.
The test system of data set [14] is PD-L1. The arrangement: method as in PMID 37409670. As to conditions: B16–F10, no control xenograft; cited from earlier work.
Setting [15] is: preincubation with 5,000 nM blocker.

T1 sequence (Q9NZQ7 19-238 limits assumed): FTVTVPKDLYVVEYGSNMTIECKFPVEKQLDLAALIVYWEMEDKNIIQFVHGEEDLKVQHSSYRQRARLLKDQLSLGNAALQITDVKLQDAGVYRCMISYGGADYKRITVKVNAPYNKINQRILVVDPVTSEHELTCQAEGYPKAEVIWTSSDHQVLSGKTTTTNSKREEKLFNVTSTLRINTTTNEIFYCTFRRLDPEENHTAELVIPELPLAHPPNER

In the case of `Cc1c(COc2cc(OCc3ccnc(C#N)c3)c(CN([11CH3])CCO)cc2Cl)cccc1-c1ccc2c(c1)OCCO2` [[^11C]5c], in data set [1], the “intact tracer in mouse plasma” value is “over 99%”. In addition, in data set [2], the “intact tracer in human plasma” value is given as “over 99%”. This compound also showed a fraction unbound in data set [3] of 0.011. Further, the “intact tracer after human liver microsomes” value in data set [4] was 49.3%. In addition, in data set [5], the “organ uptake (μPET)” value is “high uptake in the liver, intestine, gallbladder, and kidneys”. In addition, in data set [5] (dynamic scan up to 60 min), the “uptake in CHO and CHO-hPD-L1 xenografts (μPET)” value was below 1.2 % ID/cc. Also, the “organ uptake (ex vivo biodistribution)” value in [6] (NSG mice) is “substantial uptake in the liver, lung, and kidneys”. Moreover, in data set [6] (NSG mice, 30, 40 or 70 min p.i.), the “ex vivo uptake marked in Figure 9B” value is on record as below 1.5 % ID/g.
Consider `Cc1c(COc2cc(OCc3ccnc(C#N)c3)c(CN(C)CCO)cc2Cl)cccc1-c1ccc2c(c1)OCCO2` [Compound 5c, 4-((4-Chloro-5-((3-(2,3-dihydrobenzo[b][1,4]dioxin-6-yl)-2-methylbenzyl)oxy)-2-(((2-hydroxyethyl)(methyl)amino)methyl)phenoxy)methyl)picolinonitrile], for which, in data set [7], the “fold decrease in affinity by methylation at R3*” value was found to be 1.32 fold; the IC50 was 10 nM and 10.2 nM. Also, in data set [8] (CHO-hPD-L1 cells, read-out: EC50 (cell viability, MTT)), the EC50 is 11600 nM. Moreover, in [9], the “% applied activity ([^89Zr]Zr-atezolizumab bound)” value is 4.7 % applied activity, the “blockade of antibody binding” value worked out at 50% and the Ki was in the range of 700 to 4500 nM. Moreover, the “% applied activity ([^89Zr]Zr-atezolizumab bound)” value in data set [10] (setting [15]) is 0.1 % applied activity. Besides, the “μHPLC logD” value in [11] (pH 7.4) is listed as 4.9 ± 0.3. The same compound returned a chromatographic logD in data set [11] of 4.93 ± 0.27.
`Cc1c(COc2cc(OCc3ccnc(C#N)c3)c(CN(C)[C@H](CO)C(=O)O)cc2Cl)cccc1-c1ccc2c(c1)OCCO2` [Compound 5a, N-(5-Chloro-2-((2-cyanopyridin-4-yl)methoxy)-4-((3-(2,3-dihydrobenzo[b][1,4]dioxin-6-yl)-2-methylbenzyl)oxy)benzyl)-N-methyl-D-serine]: in data set [7], the “fold decrease in affinity by methylation at R3*” value was found to be 1.02 fold and the IC50 stood at 6.2 ± 0.6 nM. The EC50 in data set [8] (read-out: Relative EC50 (cell viability, MTT)) turned out to be 20600 nM. Also, in data set [9], the “% applied activity ([^89Zr]Zr-atezolizumab bound)” value was 4.2 % applied activity, the “blockade of antibody binding” value is 50% and the Ki was in the range of 700 to 4500 nM. Moreover, the “% applied activity ([^89Zr]Zr-atezolizumab bound)” value in [10] (setting [15]) is listed as 0.2 % applied activity. Moreover, the chromatographic logD in [11] is 3.36 ± 0.04.
In the case of `N#Cc1c(-c2ccc([18F])cc2)csc1OCc1ccc(CN)cc1` [2-((4-(aminomethyl)benzyl)oxy)-4-(4-[^18F]fluorophenyl)thiophene-3-carbonitrile], the “fold higher uptake in PD-L1^+ compared to PD-L1^– tumors” value in data set [12] is reported as 1.4 fold. Besides, in data set [13], the “difference in uptake PD-L1^+ vs PD-L1^– tumors” value is “not observed”.
As to `Cc1c(COc2cc(OCc3cccc(OS(=O)(=O)[18F])c3)c(CNC(CO)(CO)CO)cc2Cl)cccc1-c1ccc2c(c1)OCCO2` [[^18F]LGSu-1], the “PD-L1^+ tumor uptake” value in data set [14] is recorded as 3.3 % ID/mL.
Regarding “atezolizumab: high-affinity anti-PD-L1 antibody used for reference [reference compound]”, in [7], the IC50 was found to be 4.1 nM. For the same compound, in data set [10] (preincubation with 200 nM blocker), the “% applied activity ([^89Zr]Zr-atezolizumab bound)” value was 0.1 % applied activity.
